Experimental data taken from patent publication EP4471048A1, “PEPTIDE INHIBITORS OF INTERLEUKIN-23 RECEPTOR” (Zealand Pharma A/S, priority 2023, dated 2024).

Experiments:
[1] = biological target: T1, human IL-23R (Homo sapiens, UniProt Q5VWK5); experiment: biochemical; details: for Emax: read-out: % displacement (hIL-23R NIuc)
T1 sequence (Q5VWK5 22-629): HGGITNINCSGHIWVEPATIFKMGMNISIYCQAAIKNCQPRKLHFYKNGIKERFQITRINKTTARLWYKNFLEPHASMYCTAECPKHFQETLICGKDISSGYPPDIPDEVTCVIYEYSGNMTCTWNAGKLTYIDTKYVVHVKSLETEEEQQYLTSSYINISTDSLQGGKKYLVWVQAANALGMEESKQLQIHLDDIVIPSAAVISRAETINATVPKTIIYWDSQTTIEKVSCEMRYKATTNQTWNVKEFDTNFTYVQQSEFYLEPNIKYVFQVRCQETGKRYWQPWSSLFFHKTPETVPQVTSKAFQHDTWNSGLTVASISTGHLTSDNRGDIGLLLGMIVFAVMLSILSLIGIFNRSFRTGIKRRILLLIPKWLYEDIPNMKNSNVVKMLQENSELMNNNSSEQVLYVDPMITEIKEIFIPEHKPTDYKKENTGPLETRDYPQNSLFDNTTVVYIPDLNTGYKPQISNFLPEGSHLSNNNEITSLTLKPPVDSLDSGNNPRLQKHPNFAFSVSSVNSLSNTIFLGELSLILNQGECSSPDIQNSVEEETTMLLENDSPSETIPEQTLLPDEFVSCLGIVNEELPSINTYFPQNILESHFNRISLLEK
Procedure, shortened: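 Membranes from HEK293 cells stably expressing Nluc-tagged human IL-23R were incubated 2 h at room temperature with test compound and a fluorophore-labelled tracer. After substrate addition, loss of BRET (TAMRA over luciferase emission) reported tracer displacement. A 4PL fit gave IC50 values.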

[2] = Peptide stability in simulated intestinal fluid (SIF); assay type: in vitro ADME; details: 37 °C, porcine pancreatin; for SIF (% remaining 4 h): 10 µM; for SIF (% remaining 4 h) / remaining at 4 h, 10 µM: pH 6.8, 4 h; for remaining at 1 h, 10 µM / remaining at 4 h, 10 µM: pig; for remaining at 1 h, 10 µM: pH 6.8, 1 h
Procedure: (§1) SGF was prepared by dissolving sodium chloride (0.2 g) in 50 mL of water. A volume of 0.7 mL of 10 M HCl was added to adjust the pH of the solution to 1.2 and the volume made up to 100 mL with water. […] SIF was prepared by dissolving monobasic potassium phosphate (0.68 g) in 50 mL of water and adjusting the pH to 6.8 with 1 M NaOH. The volume was subsequently made up to 100 mL with water. 200 mg porcine pancreatin (P1625, Sigma Aldrich) was gently dissolved into 20 mL preheated (37 °C) solution (10 g/L) immediately prior to the incubation.
(§2) The incubation was performed at 37 °C with gentle shaking. […] After the last timepoint, the sampling plate was mixed for 10 min on a shaking table and centrifuged 10 min at 2200 g. 70 µL resulting supernatant was diluted with 150 µL water, mixed and centrifugated before analysis by liquid chromatography high resolution mass spectrometry. […] Percent remaining at each timepoint was calculated relative to timepoint zero based on absolute peak areas.
Compounds with a SIF stability (after 4 h) above 70% are considered highly SIF stable.

[3] = Peptide stability in simulated gastric fluid (SGF); assay type: in vitro ADME; details: 37 °C, porcine pepsin; for remaining at 1 h, 10 µM / remaining at 4 h, 10 µM: pig, simulated gastric fluid (SGF) with porcine pepsin (3.2 g/L); for remaining at 1 h, 10 µM: pH 1.2, 1 h, read-out: SGF (% remaining 1 h)
Procedure: as §1, §2
Compounds with a SGF stability (after 4 h) above 70% are considered highly SGF stable. […] Table 3-4: SGF data

[4] = SAR tables, % peptide remaining, read-out: SIF (% after 4 h)
[5] = read-out: SIF (% remaining 4 h)
[6] = pH 1.2, 10 µM, pH 1.2, 4 h, read-out: SGF (% remaining 4 h)

SMILES | IC50 [1] | Emax [1] | SIF (% remaining 4 h) [2] | remaining at 1 h, 10 µM [2] | remaining at 4 h, 10 µM [2, 4] | SGF (% remaining 4 h) ([3]; 10 µM, pH 1.2, 4 h) | remaining at 1 h, 10 µM ([3]; pH 1.2, 10 µM) | remaining at 4 h, 10 µM ([3]; pH 1.2, SAR tables, % peptide remaining, 10 µM, pH 1.2, 4 h, read-out: SGF (% after 4 h)) | remaining at 4 h, 10 µM [2, 5] | remaining at 4 h, 10 µM [3, 6] | % displacement (hIL-23R NIuc) [1]
CNC(=O)[C@H](Cc1cccnc1)NC(=O)[C@H](CCN)NC(=O)[C@@H]1CCC(=O)NCCCC[C@@H]2NC(=O)CC[C@H](NC(=O)[C@H](CCC(N)=O)NC(=O)[C@H](Cc3c[nH]c4ccccc34)NC(=O)CCNC2=O)C(=O)N[C@@H](Cc2ccccn2)C(=O)N[C@@H](Cc2ccc3ccccc3c2)C(=O)N[C@@](C)(CC(C)C)C(=O)N1 [Compound 84, K(1c)(6c)^†[3-Aminopropanoyl]WQE(6c)[3-(2-Pyridyl)-Ala][2-Nal][2-Me-Leu]E(1c)[Dab][3-(3-Pyridyl)-Ala]-[NHMe]] | 0.11 nM | 97% |  | 92% |  |  | 107% |  | 82% | 103% | 
CC[C@H](C)[C@@H]1NC(=O)[C@@H]2CCCCNC(=O)CC[C@@H](C(=O)N3CCNC3C(=O)N[C@@H](Cc3cccnc3)C(=O)NC)NC(=O)[C@](C)(CC(C)C)NC(=O)[C@H](Cc3ccc4ccccc4c3)NC(=O)[C@H](Cc3ccc(OCCN)cc3)NC(=O)[C@H](CCC(=O)N2)NC(=O)[C@H](CCC(N)=O)NC(=O)[C@H](Cc2c[nH]c3ccccc23)NC(=O)[C@H](C(C)C)NC1=O (stereo partly drawn) [Compound 72, K(1c)(6c)^†IVWQE(6c)[Y(2-aminoethoxy)][2-Nal][2-Me-Leu]E(1c)[(R,S)-Imidazolidin-2-carbonyl][3-(3-Pyridyl)-Ala]-[NHMe]] | 99 nM | 97% | 110% | 102% | 110% |  | 94% |  |  | 107% | 
COc1ccc(C[C@@H]2NC(=O)[C@@H]3CCC(=O)N[C@@H](CCCCNC(=O)CC[C@@H](C(=O)N[C@@H](CCCCNC(=O)c4cccnc4)C(N)=O)NC(=O)[C@](C)(CC(C)C)NC(=O)[C@H](Cc4ccc5ccccc5c4)NC2=O)C(=O)N[C@@H]([C@@H](C)O)C(=O)N[C@@H](C(C)C)C(=O)N[C@@H](Cc2c[nH]c4ccccc24)C(=O)N[C@@H](CCC(N)=O)C(=O)N3)cc1 [Compound 50, K(1c)(6c)^†TVWQE(6c)[Y(Me)][2-Nal][2-Me-Leu]E(1c)[K(nicotinate)]-[NH2]] | 320 nM |  |  | 95% |  |  | 78% |  | 81% | 8% | 98%
CC[C@H](C)[C@@H]1NC(=O)[C@@H]2CCCCNC(=O)CC[C@@H](C(=O)N[C@@H](Cc3cnc[nH]3)C(=O)N[C@@H](Cc3cccnc3)C(=O)NC)NC(=O)[C@](C)(CC(C)C)NC(=O)[C@H](Cc3ccc4ccccc4c3)NC(=O)[C@H](Cc3ccc(OCCN)cc3)NC(=O)[C@H](CCC(=O)N2)NC(=O)[C@H](CCC(N)=O)NC(=O)[C@H](Cc2c[nH]c3ccccc23)NC(=O)[C@H](C(C)C)NC1=O [Compound 69, K(1c)(6c)^†IVWQE(6c)[Y(2-aminoethoxy)][2-Nal][2-Me-Leu]E(1c)H[3-(3-Pyridyl)-Ala]-[NHMe]] | 0.12 nM | 101% |  | 89% | 33% |  | 112% |  |  | 102% | 
CC[C@H](C)[C@@H]1NC(=O)[C@@H]2CCCCNC(=O)CC[C@@H](C(=O)N[C@H](Cc3cnc[nH]3)C(=O)N[C@@H](Cc3cccnc3)C(=O)NC)NC(=O)[C@](C)(CC(C)C)NC(=O)[C@H](Cc3ccc4ccccc4c3)NC(=O)[C@H](Cc3ccc(OCCN)cc3)NC(=O)[C@H](CCC(=O)N2)NC(=O)[C@H](CCC(N)=O)NC(=O)[C@H](Cc2c[nH]c3ccccc23)NC(=O)[C@H](C(C)C)NC1=O [Compound 70, K(1c)(6c)^†IVWQE(6c)[Y(2-aminoethoxy)][2-Nal][2-Me-Leu]E(1c)[{d}H][3-(3-Pyridyl)-Ala]-[NHMe]] | 0.41 nM | 101% |  | 101% | 72% |  | 102% |  |  | 95% | 
CC[C@H](C)[C@@H]1NC(=O)[C@@H]2CCCCNC(=O)CC[C@@H](C(=O)NCC(=O)N[C@H](Cc3cccnc3)C(N)=O)NC(=O)[C@](C)(C(C)C)NC(=O)[C@H](Cc3ccc4ccccc4c3)NC(=O)[C@H](Cc3ccc(C)cc3)NC(=O)[C@H](CCC(=O)N2)NC(=O)[C@H](CCC(N)=O)NC(=O)[C@H](Cc2c[nH]c3ccccc23)NC(=O)[C@H](C(C)C)NC1=O [Compound 19, K(1c)(6c)^†IVWQE(6c)[F(4-Me)][2-Nal][2-Me-Val]E(1c)G[{d}3-(3-Pyridyl)-Ala]-[NH2]] | 37 nM | 103% |  | 90% |  |  | 78% |  | 27% | 6% | 
CNC(=O)[C@H](Cc1cccnc1)NC(=O)[C@H](CCN)NC(=O)[C@@H]1CCC(=O)NCCCC[C@@H]2NC(=O)CC[C@H](NC(=O)[C@H](CCC(N)=O)NC(=O)[C@H](Cc3c[nH]c4ccccc34)NC(=O)CCNC2=O)C(=O)N[C@@H](Cc2ccncc2)C(=O)N[C@@H](Cc2ccc3ccccc3c2)C(=O)N[C@@](C)(CC(C)C)C(=O)N1 [Compound 85, K(1c)(6c)^†[3-Aminopropanoyl]WQE(6c)[3-(4-Pyridyl)-Ala][2-Nal][2-Me-Leu]E(1c)[Dab][3-(3-Pyridyl)-Ala]-[NHMe]] | 0.17 nM | 97% |  | 103% |  |  | 109% |  | 85% | 110% | 

The next compounds have a lower IC50 [1] than those just listed; values first:

IC50 [1] | Emax [1] | SIF (% remaining 4 h) [2] | remaining at 1 h, 10 µM [2] | remaining at 4 h, 10 µM [2, 4] | SGF (% remaining 4 h) ([3]; 10 µM, pH 1.2, 4 h) | remaining at 1 h, 10 µM ([3]; pH 1.2, 10 µM) | remaining at 4 h, 10 µM ([3]; pH 1.2, SAR tables, % peptide remaining, 10 µM, pH 1.2, 4 h, read-out: SGF (% after 4 h)) | remaining at 4 h, 10 µM [2, 5] | remaining at 4 h, 10 µM [3, 6] | % displacement (hIL-23R NIuc) [1] | SMILES
0.072 nM | 99% | 0% | 33% | 0% | 95% | 91% | 95% |  |  |  | CC[C@H](C)[C@@H]1NC(=O)[C@@H]2CCCCNC(=O)CC[C@@H](C(=O)N[C@@H](CCN)C(=O)N[C@@H](Cc3cccnc3)C(=O)NC)NC(=O)CNC(=O)[C@H](Cc3ccc4ccccc4c3)NC(=O)[C@H](Cc3ccc(OCCN)cc3)NC(=O)[C@H](CCC(=O)N2)NC(=O)[C@H](CCC(N)=O)NC(=O)[C@H](Cc2c[nH]c3ccccc23)NC(=O)[C@H](C(C)C)NC1=O [Compound 68, K(1c)(6c)^†IVWQE(6c)[Y(2-aminoethoxy)][2-Nal]GE(1c)[Dab][3-(3-Pyridyl)-Ala]-[NHMe]]
0.024 nM |  |  | 88% |  |  | 101% |  | 58% | 96% | 101% | CNC(=O)[C@H](Cc1cccnc1)NC(=O)[C@H](CCN)NC(=O)[C@@H]1CCC(=O)NCCCC[C@@H]2NC(=O)CC[C@H](NC(=O)[C@H](CCC(N)=O)NC(=O)[C@H](Cc3c[nH]c4ccccc34)NC(=O)CCCNC2=O)C(=O)N[C@@H](Cc2ccc(OCCN)cc2)C(=O)N[C@@H](Cc2ccc3ccccc3c2)C(=O)N[C@@](C)(CC(C)C)C(=O)N1 [Compound 98, K(1c)(6c)^†[4-Aminobutanoyl]WQE(6c)[Y(2-aminoethoxy)][2-Nal][2-Me-Leu]E(1c)[Dab][3-(3-Pyridyl)-Ala]-[NHMe]]
0.049 nM |  |  | 77% |  |  | 94% |  | 36% | 111% | 101% | CNC(=O)[C@H](Cc1cccnc1)NC(=O)[C@H](Cc1cnc[nH]1)NC(=O)[C@@H]1CCC(=O)NCCCC[C@@H]2NC(=O)CC[C@H](NC(=O)[C@H](CCC(N)=O)NC(=O)[C@H](Cc3c[nH]c4ccccc34)NC(=O)CCNC2=O)C(=O)N[C@@H](Cc2ccc(OCCN)cc2)C(=O)N[C@@H](Cc2ccc3ccccc3c2)C(=O)N[C@@](C)(CC(C)C)C(=O)N1 [Compound 86, K(1c)(6c)^†[3-Aminopropanoyl]WQE(6c)[Y(2-aminoethoxy)][2-Nal][2-Me-Leu]E(1c)H[3-(3-Pyridyl)-Ala]-[NHMe]]
